From PubChem BioAssay AID248 (DTP/NCI, 2004)
Values joined by “and” are separate entries in the source; they are usually repeats but may differ in a detail not shown here. Equal entries are not always repeated. Inconclusive results and toxic doses are left out. No stated cut-off is given here; in the data, active means T/C of 150% or more; inactive means T/C below 125%.

System: L1210 leukemia ip in BDF1 mice, survival T/C
Test: NCI In Vivo Anticancer Drug Screen. Data for tumor model L1210 Leukemia (intraperitoneal) in B6D2F1 (BDF1) mice
Details: endpoint: mean survival time, higher = longer survival
In short: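 Tumor cells were implanted, animals were treated, and survival was followed. The result divides the treated measurement by the vehicle-control measurement.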

[1] = dose: 100.0 mg/kg/injection, schedule: Q04DX003 (ip), vehicle: saline
[2] = dose: 200.0 mg/kg/injection, schedule: Q04DX003 (ip), vehicle: saline
[3] = dose: 400.0 mg/kg/injection, schedule: Q04DX003 (ip), vehicle: saline
[4] = dose: 100.0 mg/kg/injection, schedule: Q01DX009 (ip), vehicle: Klucel (hydroxypropylcellulose) (HPC)
[5] = dose: 100.0 mg/kg/injection, schedule: Q04DX003 (ip), vehicle: Klucel (hydroxypropylcellulose) (HPC)
[6] = dose: 100.0 mg/kg/injection, schedule: Q01DX001 (ip), vehicle: saline with Tween-80
[7] = dose: 200.0 mg/kg/injection, schedule: Q01DX001 (ip), vehicle: saline with Tween-80
[8] = dose: 200.0 mg/kg/injection, schedule: Q04DX003 (ip), vehicle: Klucel (hydroxypropylcellulose) (HPC)
[9] = dose: 400.0 mg/kg/injection, schedule: Q04DX003 (ip), vehicle: Klucel (hydroxypropylcellulose) (HPC)
[10] = dose: 50.0 mg/kg/injection, schedule: Q01DX001 (ip), vehicle: Klucel (hydroxypropylcellulose) (HPC)
[11] = dose: 100.0 mg/kg/injection, schedule: Q01DX001 (ip), vehicle: Klucel (hydroxypropylcellulose) (HPC)
[12] = dose: 100.0 mg/kg/injection, schedule: Q01DX009 (ip), vehicle: saline
[13] = dose: 200.0 mg/kg/injection, schedule: Q01DX009 (ip), vehicle: saline
[14] = dose: 400.0 mg/kg/injection, schedule: Q01DX009 (ip), vehicle: saline

Measured: T/C

COCCOC(=O)CCCCC(=O)OCCOC
inactive: [1] 107 % of control | [2] 100 % of control | [3] 94 % of control

O=C(c1ccc(Cl)cc1)c1cccc[n+]1Cc1ccccc1
inactive: dose: 12.5 mg/kg/injection, schedule: Q04DX003 (ip), vehicle: Klucel (hydroxypropylcellulose) (HPC) 102 % of control | dose: 25.0 mg/kg/injection, schedule: Q01DX009 (ip), vehicle: Klucel (hydroxypropylcellulose) (HPC) 103 % of control | dose: 25.0 mg/kg/injection, schedule: Q04DX003 (ip), vehicle: Klucel (hydroxypropylcellulose) (HPC) 101 % of control | dose: 50.0 mg/kg/injection, schedule: Q01DX009 (ip), vehicle: Klucel (hydroxypropylcellulose) (HPC) 103 % of control | dose: 50.0 mg/kg/injection, schedule: Q04DX003 (ip), vehicle: Klucel (hydroxypropylcellulose) (HPC) 94 % of control | [4] 119 % of control | [5] 97 % of control

COC12C(COC(=O)NCCO)C3=C(C(=O)C(C)=C(N)C3=O)N1CC1NC12 (centres undefined)
inactive: dose: 5.0 mg/kg/injection, schedule: Q01DX009 (ip), vehicle: saline 121 % of control | dose: 10.0 mg/kg/injection, schedule: Q01DX009 (ip), vehicle: saline 122 % of control | dose: 12.0 mg/kg/injection, schedule: Q04DX003 (ip), vehicle: Klucel (hydroxypropylcellulose) (HPC) 94 % of control | dose: 19.0 mg/kg/injection, schedule: Q04DX003 (ip), vehicle: Klucel (hydroxypropylcellulose) (HPC) 111 % of control | dose: 28.0 mg/kg/injection, schedule: Q04DX003 (ip), vehicle: Klucel (hydroxypropylcellulose) (HPC) 111 % of control | dose: 40.0 mg/kg/injection, schedule: Q01DX009 (ip), vehicle: saline 102 % of control | dose: 43.0 mg/kg/injection, schedule: Q01DX001 (ip), vehicle: Klucel (hydroxypropylcellulose) (HPC) 121 % of control | dose: 43.0 mg/kg/injection, schedule: Q01DX009 (ip), vehicle: Klucel (hydroxypropylcellulose) (HPC) 109 % of control | dose: 43.0 mg/kg/injection, schedule: Q04DX003 (ip), vehicle: Klucel (hydroxypropylcellulose) (HPC) 115 % of control | dose: 100.0 mg/kg/injection, schedule: Q01DX003 (ip), vehicle: Klucel (hydroxypropylcellulose) (HPC) 103 % of control | dose: 150.0 mg/kg/injection, schedule: Q01DX001 (ip), vehicle: Klucel (hydroxypropylcellulose) (HPC) 102 % of control | dose: 150.0 mg/kg/injection, schedule: Q01DX003 (ip), vehicle: Klucel (hydroxypropylcellulose) (HPC) 94 % of control | dose: 200.0 mg/kg/injection, schedule: Q04DX002 (ip), vehicle: Klucel (hydroxypropylcellulose) (HPC) 91 % of control | dose: 225.0 mg/kg/injection, schedule: Q01DX001 (ip), vehicle: Klucel (hydroxypropylcellulose) (HPC) 91 % of control | dose: 225.0 mg/kg/injection, schedule: Q01DX003 (ip), vehicle: Klucel (hydroxypropylcellulose) (HPC) 95 % of control | dose: 400.0 mg/kg/injection, schedule: Q04DX002 (ip), vehicle: Klucel (hydroxypropylcellulose) (HPC) 91 % of control

S=c1nc2ccccn2c(=S)n1-c1ccccn1
inactive: [6] 106 % of control | [7] 100 % of control

CC1=C2C(=CO[C@H](C)[C@H]2C)C(=O)C(C(=O)O)=C1O
inactive: dose: 12.5 mg/kg/injection, schedule: Q04DX002 (ip), vehicle: saline with Tween-80 88 % of control | dose: 25.0 mg/kg/injection, schedule: Q04DX002 (ip), vehicle: saline with Tween-80 103 % of control | dose: 50.0 mg/kg/injection, schedule: Q04DX002 (ip), vehicle: saline with Tween-80 102 % of control and 88 % of control

O=C(Oc1ccc(Cl)cc1)c1ccc(C(=O)Oc2ccc(Cl)cc2)cc1
inactive: dose: 75.0 mg/kg/injection, schedule: Q01DX009 (ip), vehicle: saline sonified 93 % of control | [5] 100 % of control | dose: 150.0 mg/kg/injection, schedule: Q01DX009 (ip), vehicle: saline sonified 91 % of control | [8] 97 % of control | dose: 300.0 mg/kg/injection, schedule: Q01DX009 (ip), vehicle: saline sonified 87 % of control | [9] 92 % of control

COc1cc(C(=O)N(CCCl)N=O)cc(OC)c1OC
inactive: dose: 1.56 mg/kg/injection, schedule: Q01DX009 (ip), vehicle: saline with Tween-80 100 % of control | dose: 3.12 mg/kg/injection, schedule: Q01DX009 (ip), vehicle: saline with Tween-80 100 % of control and 107 % of control | dose: 6.25 mg/kg/injection, schedule: Q01DX009 (ip), vehicle: saline with Tween-80 100 % of control and 104 % of control | dose: 12.5 mg/kg/injection, schedule: Q01DX009 (ip), vehicle: saline with Tween-80 104 % of control | dose: 25.0 mg/kg/injection, schedule: Q04DX003 (ip), vehicle: saline with Tween-80 102 % of control | dose: 50.0 mg/kg/injection, schedule: Q04DX003 (ip), vehicle: saline with Tween-80 89 % of control | dose: 100.0 mg/kg/injection, schedule: Q04DX003 (ip), vehicle: saline with Tween-80 102 % of control and 86 % of control

C#CCSC(=S)OCC
inactive: dose: 100.0 mg/kg/injection, schedule: Q04DX003 (ip), vehicle: other 95 % of control | dose: 200.0 mg/kg/injection, schedule: Q04DX003 (ip), vehicle: other 101 % of control

Nc1cc(/C=C/c2ccc(/C=C/c3ccc(S(=O)(=O)F)cc3)cc2)nc(N)n1
inactive: dose: 50.0 mg/kg/injection, schedule: Q01DX001 (ip), vehicle: saline with Tween-80 87 % of control | [6] 92 % of control

C=CCSCCC=O
inactive: dose: 25.0 mg/kg/injection, schedule: Q01DX001 (ip), vehicle: Klucel (hydroxypropylcellulose) (HPC) 100 % of control | [10] 102 % of control | [11] 102 % of control

COc1c(C)c2c(c(Br)c1N)COCO2
inactive: [10] 94 % of control | [11] 92 % of control | [5] 95 % of control | dose: 200.0 mg/kg/injection, schedule: Q01DX001 (ip), vehicle: Klucel (hydroxypropylcellulose) (HPC) 94 % of control | [8] 97 % of control

CSc1ccnc2[nH]ncc12
inactive: dose: 100.0 mg/kg/injection, schedule: Q04DX002 (ip), vehicle: DMSO 94 % of control | dose: 200.0 mg/kg/injection, schedule: Q04DX002 (ip), vehicle: DMSO 105 % of control

O=C1O/C(=C/c2ccccc2)C2CCCCC12 (centres undefined)
inactive: [12] 90 % of control | [1] 105 % of control | [13] 93 % of control | [2] 93 % of control | [14] 95 % of control | [3] 95 % of control

CCCCC(CC1CCCCC1)C(=O)O (centres undefined)
inactive: [6] 91 % of control | [7] 95 % of control | dose: 400.0 mg/kg/injection, schedule: Q01DX001 (ip), vehicle: saline with Tween-80 88 % of control

Nc1nc(Nc2ccccc2)nc(C(=O)O)n1
inactive: [12] 92 % of control | [1] 110 % of control | [13] 106 % of control | [2] 101 % of control | [14] 115 % of control | [3] 106 % of control

CCOC(=O)c1cnc(SC)nc1Nc1cccc([N+](=O)[O-])c1
inactive: [4] 110 % of control | [5] 97 % of control | dose: 200.0 mg/kg/injection, schedule: Q01DX009 (ip), vehicle: Klucel (hydroxypropylcellulose) (HPC) 97 % of control | [8] 98 % of control | dose: 400.0 mg/kg/injection, schedule: Q01DX009 (ip), vehicle: Klucel (hydroxypropylcellulose) (HPC) 95 % of control | [9] 95 % of control
